These results are taken from article PMC10304225, “In Vitro Cytotoxicity and In Vivo Antitumor Activity of Lipid Nanocapsules Loaded with Novel Pyridine Derivatives” (Pharmaceutics, 2023).

Series [1] in a line: Biochemical analysis of liver and kidney functions in serum. The format is in vivo. The note with it: EAC-bearing mice, 10 mg/kg i.p., last day of experiment. As for the experimental part: On the last day of the experiment, 4 out 8 mice were euthanized, and blood samples were collected by cardiac puncture in dry Eppendorf tubes. Blood samples were set aside for 30 min at room temperature and the tubes were then centrifuged for 15 min at 2000× g to obtain serum. To assess possible hepatic damage, aspartate transaminase (AST) and alanine transaminase (ALT) activities in serum samples were assayed by using a commercial kit (Biodiagnostic, Cairo, Egypt) according to the method of Reitman and Frankel. In addition, serum creatinine level was quantified as an indicator for possible renal damage. The level of serum creatinine was analyzed by using a commercial kit that was purchased from Biodiagnostic (Cairo, Egypt) according to manufacturer instructions.

Series [2] deals with Ehrlich ascites carcinoma (EAC) solid tumor. Nature of the series: Histopathological examination of solid tumors (H&E). The format is in vivo, mice. The following applies: 10 mg/kg. As for the experimental part:
On the last day of the experiment, solid tumors were dissected from all mice and were fixed […] in formalin-alcohol for 48 h, dehydrated in an alcohol series, cleared in xylene, and embedded in paraffin. Sections (4–5 μm in thickness) were stained with hematoxylin and eosin (H&E). Slides were then imaged using a Universal Infinity System optical microscope (Olympus®, Tokyo, Japan) equipped with a computer-controlled digital camera. A histopathological analysis of the tumor sections was focused on finding a typical mitotic picture, neoplastic giant cells, and the extension of the necrotic area. Histopathological examinations were evaluated in a blinded way by a pathologist.

For series [3] the test system is unchanged. Nature of the series: In vivo antitumor activity in EAC solid tumor-bearing mice. The note with it: 10 mg/kg i.p. every other day for 21 days. Here is the method:
Ehrlich ascites carcinoma (EAC) cells (1 × 10^6 cells) obtained from the National Cancer Institute (Cairo, Egypt) were injected intraperitoneally into the peritoneal cavity of Swiss Albino mice. On day 7 post tumor cell inoculation, ascites fluid was collected. EAC was diluted with saline to obtain a cell density of 25 × 10^6 cells/mL. Then, 200 μL of the cells were injected subcutaneously in the mice’s right flanks. Tumor growth was monitored post-inoculation, and the size of the tumor was measured with a Vernier caliper. Treatment protocols were initiated on day 8 post tumor inoculation, when the tumor was palpable. […]
The dose and route of administration of the test compound and the treatment regimen were established based on previously published reports. The antitumor efficacy of different treatment protocols was evaluated in terms of tumor size, percentage tumor growth inhibition (% TGI), median survival time (MST), and percentage increase in life span (% ILS) using the following equations [31, 32]:Tumor size (mm^3) = ½ (Length × Width^2) % TGI=1−Mean tumor volume of treated group/Mean tumor volume in control group×100 MST = (day of first death + day of last death)/2 %ILS=MSTtreated group/MSTcontrol group−1×100
In addition, body weight was assessed concurrently to determine any remarkable systemic toxicity.

Series [4] has as its system Swiss Albino mice. Nature of the series: Median lethal dose (LD50), single i.p. injection. Format: in vivo. The note with it: for Number of animal dead: n=5, 24 h. Here is the method: The median lethal dose (LD50) test was performed to determine the dose of a test substance that elicits 50% death in mice. Briefly, a total of 30 mice were categorized into 6 groups (n = 5). Each group was dosed with a single intraperitoneal injection of the test compound (S4) dissolved in 3% dimethyl sulfoxide. The screened doses ranged from 100 to 180 mg/kg. The animals were then monitored for 2 h and then at 4, 6, and 24 h for signs of toxicity. At the end of 24 h, the total number of deaths was recorded. The LD50 was then calculated using the following equation [27]: LD50=LD100−{Σ[Dose difference×Mean dead]}/Number of animals per group where LD100 is the lowest dose capable of killing 100% of animals.

Series [5] relates to Swiss Albino mice. Description: Acute toxicity study, single i.p. dose. Format: in vivo. Here is the method:
Acute toxicity studies are carried out in order to evaluate the short-term negative effects of a test compound when administered in a single dose during a period of 24 h. Briefly, the maximum tolerated dose (100 mg/kg) of the test compound (S4), dissolved in 3% dimethyl sulfoxide, was injected intraperitoneally in a group of mice (n = 5). A control group (n = 5) was i.p. injected with an equivalent volume of 3% dimethyl sulfoxide. The mice were then observed for general behavior for 1 h post-treatment and then intermittently for 4 h and finally at 24 h. The mice were then monitored for up to 14 days after treatment for symptoms of toxicity or mortalities.

In the next series the test system is MCF-7 cells. Nature of the series: In vitro cytotoxicity, MTT assay. Format: cell-based, human. The following applies: 48 h, read-out: IC50 against MCF-7. As for the experimental part:
(§1) A human lung cancer (A549) cell line, human breast adenocarcinoma (MCF-7), and normal MCF-10A human […] were obtained from VASCERA Co. (Vaccines Sera and Drugs; Cairo, Egypt). […] were cultured in Dulbecco’s modified Eagle’s medium (DMEM, Biowest, Nuaillé, France) supplemented with 10% fetal bovine serum, 100 U/mL penicillin/100 μg/mL streptomycin, and incubated under standard conditions (37 °C, 5% CO2).
(§2) The in vitro cytotoxicities of various pyridine derivatives loaded into LPNCs against A549 cells and MCF-7 cells were evaluated by the MTT assay. Briefly, 100 μL cell suspension equivalent to 1 × 10^4 cells/well was planted in a 96-well plate and incubated at 37 °C. At 24 h post-incubation, the cells were treated with 100 μL of serial dilutions of either free pyridine derivatives (S1–S4) or pyridine derivatives (S1–S4)-loaded LPNCs in a concentration range of 0.1 to 100 μM. The cells were further incubated at 37 °C for 48 h. The spent culture medium was then decanted, the cells were rinsed, 50 μL of MTT reagent (0.5 mg/mL) was added to each well, and the cells were incubated for 4 h at 37 °C. Finally, to dissolve the formazan crystals, DMSO solution (150 μL) was added to each well. The absorbance of each well was measured at 570 nm using a microplate reader (TEKAN Japan, Kawasaki, Japan). The percent cell viability was plotted against the tested compound concentration to determine the IC50 values.
For orientation: Tetrazolium dyes change colour on reduction, which living cells bring about.

The next series concerns A549 cells. Description: In vitro cytotoxicity, MTT assay. Format: cell-based, human. The following applies: 48 h, read-out: IC50 against A549. Here is the method: as §1, §2
Series [6] is described as follows: Solubility measurement in various solvents (excess compound, 72 h shaking). The format is physicochemical. The note with it: for solubility in PB (pH 7.4): phosphate buffer pH 7.4. As for the experimental part: The solubility of 2-amino-4-aryl-6-substituted pyridine-3,5-dicarbonitrile derivatives (S1–S4) in various solvents (methanol, ethanol, phosphate buffer, and water) was determined by adding an excess amount of each compound to 10 mL of each solvent in a sealed conical flask. The slurry was then agitated at 100 rpm in a temperature-controlled incubator shaker for 72 h to reach equilibrium. The undissolved particles were allowed to settle by keeping the saturated solution without agitation for another 2 h. The solution was then centrifuged at 10,000 rpm for 10 min. One mL samples of the clear supernatant was withdrawn, diluted with the suitable solvent, and finally analyzed spectrophotometrically at pre-determined wavelengths (Table S1).

Structures are written as SMILES. Converted amounts (≈) assume the structure as drawn.

In series [1], `O=c1[nH]cc(F)c(=O)[nH]1` [Compound 5-FU, 5-fluorouracil, reference compound] came in with an ALT of 51.87 ± 1.29 IU/L, an AST of 74.23 ± 3.84 IU/L and a Creatinine of 1.05 ± 0.15 mg/dL. Further, the tumor section histology entry in series [2] was “loss of cellular architecture and tumor tissue compactness”. The “tumor growth inhibition rate (TGI (%))” value in series [3] was found to be 86.81%.
A word on the IC50: it is the point on the concentration scale where inhibition reaches its midpoint. In the case of `N#Cc1c(N)nc(Nc2ccccc2)c(C#N)c1-c1ccccc1` [Compound S4], in the series on Swiss Albino mice [4] (100 mg/kg i.p.), the “lethality and signs of toxicity” value was “not lethal but only induced drowsiness”; the “Number of animal dead” value amounted to 0. Further, in the series with Swiss Albino mice [4] (120 mg/kg and higher, i.p.), the lethality result is given as “lethal to animals”. The “Number of animal dead” value in the series with Swiss Albino mice [4] (120 mg/kg i.p.) was found to be 5. Moreover, the “Number of animal dead” value with Swiss Albino mice [4] (140 mg/kg i.p.) worked out at 5. The “Number of animal dead” value in the series on Swiss Albino mice [4] (160 mg/kg i.p.) was 5. In the series on Swiss Albino mice [4] (180 mg/kg i.p.), the “Number of animal dead” value was 5. In series [1], this compound returned an ALT of 20.50 ± 1.28 IU/L, an AST of 36.66 ± 1.87 IU/L and a Creatinine of 0.54 ± 0.02 mg/dL. Further, the tumor section histology entry in series [2] was “loss of cellular architecture and tumor tissue compactness”. In the series with Swiss Albino mice [5] (mice, i.p.), this compound came in with a maximum tolerated dose of 100 mg/kg. Moreover, the acute toxicity observations result with Swiss Albino mice [5] (up to 100 mg/kg i.p., monitored up to 14 days) is “no behavioral abnormalities, toxicity symptoms, or mortalities were detected”. The “tumor growth inhibition rate (TGI (%))” value in series [3] amounted to 73.42%. Moreover, the IC50 with MCF-7 cells is > 100 µM. In the series with A549 cells, the IC50 was > 100 µM. Further, in series [6], the solubility in ethanol is 18.56 ± 0.337 mg/mL (≈ 59.6 mM), the solubility in methanol is 16.57 ± 0.315 mg/mL (≈ 53.2 mM), the “solubility in PB (pH 7.4)” value was found to be 0.59 ± 0.001 mg/ml and the solubility in water came to 0.58 ± 0.002 mg/mL (≈ 1.86 mM).
For `N#Cc1c(N)nc(N)c(C#N)c1-c1ccccc1` [Compound S3], the IC50 in the series with MCF-7 cells is > 100 µM. The IC50 with A549 cells was > 100 µM. In series [6], the solubility in ethanol stood at 18.86 ± 0.225 mg/mL (≈ 80.2 mM), the solubility in methanol came out at 35.36 ± 0.203 mg/mL (≈ 150 mM), the “solubility in PB (pH 7.4)” value came to 0.59 ± 0.010 mg/ml and the solubility in water was 0.99 ± 0.007 mg/mL (≈ 4.21 mM).
For `Cc1ccc(Nc2nc(N)c(C#N)c(-c3ccccc3)c2C#N)cc1` [Compound S2], in the series with MCF-7 cells, the IC50 is > 100 µM. Further, the IC50 in the series on A549 cells was > 100 µM. In series [6], the solubility in ethanol came out at 13.82 ± 0.326 mg/mL (≈ 42.5 mM), the solubility in methanol is 25.71 ± 0.323 mg/mL (≈ 79 mM), the “solubility in PB (pH 7.4)” value is 1.63 ± 0.005 mg/ml and the solubility in water worked out at 1.25 ± 0.006 mg/mL (≈ 3.84 mM).
Regarding `CCNc1nc(N)c(C#N)c(-c2ccccc2)c1C#N` [Compound S1], the IC50 in the series with MCF-7 cells is > 100 µM. The IC50 in the series with A549 cells was > 100 µM. In series [6], this compound came in with a solubility in ethanol of 5.98 ± 0.230 mg/mL (≈ 22.7 mM), a solubility in methanol of 21.76 ± 0.260 mg/mL (≈ 82.6 mM) and a solubility in water of 0.57 ± 0.021 mg/mL (≈ 2.16 mM).
